Source: US8858997B2, “Formulations and methods for lyophilization and lyophilates provided thereby” (Remedy Pharmaceuticals, Inc., priority 2007, dated 2014)
In brackets after ≈: the same amount, converted by molar mass. Like-named read-outs stand apart in the source and are kept apart here.

Tests used:
[1] = cited from earlier work
[2] = Stated physicochemical properties (pKa, water and ethanol solubility); conditions: 109 mg/L vs. 4 mg/L
[3] = all measured pH values from pH 4 to pH 9; Britton-Robinson buffer; cited from earlier work
[4] = Solubility studies using micronized glibenclamide: unbuffered saline; assay type: physicochemical; conditions: thermodynamic from solid
Text: This was done iteratively until pH was stable. “GLB” indicates glibenclamide.

[5] = Solubility of glibenclamide in buffered water solutions (Britton Robinson); assay type: physicochemical
Text: Buffered water solutions (Britton Robinson buffers) were used to determine the amounts of glibenclamide soluble in buffered solutions without added salt or added sugar.

[6] = Solubility studies using micronized glibenclamide: unbuffered 2% sucrose and water; assay type: physicochemical; conditions: for GLB mg/ml (glibenclamide in solution): 2% sucrose in water; for solubility: aqueous buffer, thermodynamic from solid, water without bulking agent
Protocol: Micronized glibenclamide in 2% sucrose (as a proxy for glucose, fructose, mannose, galactose, mannitol, sorbitol, lactose, trehalose, and other sugars, including mono-saccharides, di-saccharides) in water was prepared, as recorded in the left-hand column of Table 4. In addition, micronized glibenclamide was prepared in water without a bulking agent (see Table 4, right column). These were unbuffered solutions, so that 1) pH was adjusted to the target value, then 2) glibenclamide was added (which lowered the pH) and then 3) pH was re-adjusted up to the target. This was done iteratively until the pH was stable.

[7] = 0.1 M, pH 10 phosphate-buffered aqueous solution (300 mOsm/L); cited from earlier work

CCOc1cc(CC(=O)N[C@@H](CC(C)C)c2ccccc2N2CCCCC2)ccc1C(=O)O [Repaglinide]
water solubility ([1]; pH 9): 0.6 mg/mL (≈ 1330 µM)

CCCCNC(=O)NS(=O)(=O)c1ccc(C)cc1 [Tolbutamide]
times more soluble in water than glibenclamide [2]: 24 times | water solubility [1]: 0.109 mg/mL (≈ 403 µM)

COc1ccc(Cl)cc1C(=O)NCCc1ccc(S(=O)(=O)NC(=O)NC2CCCCC2)cc1 [Glibenclamide, 5-chloro-N-[2-[4-(cyclohexylcarbamoylsulfamoyl)phenyl]ethyl]-2-methoxy-benzamide]
solubility [3]: below 1 mg/mL | solubility ([4]; 0.9% saline in water, pH 8.07, saline or isotonic, Saline 0.9%, pH 8.070, read-out: GLB mg/ml (glibenclamide in solution)): 0.024 mg/mL (≈ 48.6 µM) | solubility ([4]; 0.9% saline in water, pH 8.44, saline or isotonic, Saline 0.9%, pH 8.440, read-out: GLB mg/ml (glibenclamide in solution)): 0.109 mg/mL (≈ 221 µM) | solubility ([4]; 0.9% saline in water, pH 9.18, saline or isotonic, Saline 0.9%, pH 9.180, read-out: GLB mg/ml (glibenclamide in solution)): 0.435 mg/mL (≈ 881 µM) | solubility ([4]; 0.9% saline in water, pH 9.92, saline or isotonic, Saline 0.9%, pH 9.920, read-out: GLB mg/ml (glibenclamide in solution)): 0.42 mg/mL (≈ 850 µM) | solubility ([4]; 0.9% saline in water, pH 10.48, saline or isotonic, Saline 0.9%, pH 10.480, read-out: GLB mg/ml (glibenclamide in solution)): 0.456 mg/mL (≈ 923 µM) | solubility ([4]; 0.9% saline in water, pH 11.06, saline or isotonic, Saline 0.9%, pH 11.060, read-out: GLB mg/ml (glibenclamide in solution)): 0.445 mg/mL (≈ 901 µM) | solubility ([4]; 0.9% saline in water, pH 11.61, saline or isotonic, Saline 0.9%, pH 11.610, read-out: GLB mg/ml (glibenclamide in solution)): 0.538 mg/mL (≈ 1090 µM) | solubility ([4]; 0.9% saline in water, pH 12.07, saline or isotonic, Saline 0.9%, pH 12.070, read-out: GLB mg/ml (glibenclamide in solution)): 0.476 mg/mL (≈ 964 µM) | solubility ([4]; 2% saline in water, pH 12.1, saline or isotonic, Saline 2%, pH 12.10, read-out: GLB mg/ml (glibenclamide in solution)): 0.216 mg/mL (≈ 437 µM) | solubility ([4]; 2% saline in water, saline or isotonic, Saline 2%, pH 7.24, read-out: GLB mg/ml (glibenclamide in solution)): 0.012 mg/mL (≈ 24.3 µM) | solubility ([4]; 2% saline in water, saline or isotonic, Saline 2%, pH 7.97, read-out: GLB mg/ml (glibenclamide in solution)): 0.028 mg/mL (≈ 56.7 µM) | solubility ([4]; 2% saline in water, saline or isotonic, Saline 2%, pH 8.34, read-out: GLB mg/ml (glibenclamide in solution)): 0.087 mg/mL (≈ 176 µM) | solubility ([4]; 2% saline in water, saline or isotonic, Saline 2%, pH 8.89, read-out: GLB mg/ml (glibenclamide in solution)): 0.214 mg/mL (≈ 433 µM) | solubility ([4]; 2% saline in water, saline or isotonic, Saline 2%, pH 8.94, read-out: GLB mg/ml (glibenclamide in solution)): 0.233 mg/mL (≈ 472 µM) | solubility ([4]; 2% saline in water, saline or isotonic, Saline 2%, pH 9.49, read-out: GLB mg/ml (glibenclamide in solution)): 0.205 mg/mL (≈ 415 µM) | solubility ([4]; 2% saline in water, saline or isotonic, Saline 2%, pH 10.31, read-out: GLB mg/ml (glibenclamide in solution)): 0.215 mg/mL (≈ 435 µM) | solubility ([4]; 2% saline in water, saline or isotonic, Saline 2%, pH 10.98, read-out: GLB mg/ml (glibenclamide in solution)): 0.192 mg/mL (≈ 389 µM) | solubility ([4]; 2% saline in water, saline or isotonic, Saline 2%, pH 11.49, read-out: GLB mg/ml (glibenclamide in solution)): 0.194 mg/mL (≈ 393 µM) | solubility ([5]; Britton Robinson buffer in water, aqueous buffer, pH 9.000, read-out: GLB mg/mL (glibenclamide in solution)): 0.14 mg/mL (≈ 283 µM) | solubility ([5]; Britton Robinson buffer in water, pH 9.7, aqueous buffer, pH 9.700, read-out: GLB mg/mL (glibenclamide in solution)): 0.85 mg/mL (≈ 1720 µM) | solubility ([5]; Britton Robinson buffer, aqueous buffer, pH 5.3, read-out: GLB mg/mL (glibenclamide in solution)): 0.01 mg/mL (≈ 20.2 µM) | solubility ([5]; Britton Robinson buffer, aqueous buffer, pH 8.000, read-out: GLB mg/mL (glibenclamide in solution)): 0.02 mg/mL (≈ 40.5 µM) | solubility ([5]; Britton Robinson buffer, aqueous buffer, pH 8.3, read-out: GLB mg/mL (glibenclamide in solution)): 0.02 mg/mL (≈ 40.5 µM) | solubility ([5]; Britton Robinson buffer, pH 6.2, aqueous buffer, pH 6.200, read-out: GLB mg/mL (glibenclamide in solution)): 0.01 mg/mL (≈ 20.2 µM) | solubility ([5]; Britton Robinson buffer, pH 7.1, aqueous buffer, pH 7.100, read-out: GLB mg/mL (glibenclamide in solution)): 0.01 mg/mL (≈ 20.2 µM) | solubility ([5]; Britton Robinson buffer, pH 10.1, aqueous buffer, pH 10.100, read-out: GLB mg/mL (glibenclamide in solution)): 2.35 mg/mL (≈ 4760 µM) | ethanol solubility [1]: 5 mg/mL | GLB mg/ml (glibenclamide in solution) ([6]; pH 7.45): 0.051 mg/mL | GLB mg/ml (glibenclamide in solution) ([6]; pH 7.50): 0.099 mg/mL | GLB mg/ml (glibenclamide in solution) ([6]; pH 8.24): 0.310 mg/mL | GLB mg/ml (glibenclamide in solution) ([6]; pH 8.66): 1.069 mg/mL | GLB mg/ml (glibenclamide in solution) ([6]; pH 9.16): 2.608 mg/mL | GLB mg/ml (glibenclamide in solution) ([6]; pH 9.53): 3.060 mg/mL | GLB mg/ml (glibenclamide in solution) ([6]; pH 9.74): 4.103 mg/mL | GLB mg/ml (glibenclamide in solution) ([6]; pH 11.23): 3.811 mg/mL | GLB mg/ml (glibenclamide in solution) ([6]; pH 11.30): 3.416 mg/mL | GLB mg/ml (glibenclamide in solution) ([6]; pH 11.99): 1.904 mg/mL | solubility ([6]; pH 7.36, read-out: GLB mg/ml (glibenclamide in solution)): 0.019 mg/mL (≈ 38.5 µM) | solubility ([6]; pH 7.55, read-out: GLB mg/ml (glibenclamide in solution)): 0.096 mg/mL (≈ 194 µM) | solubility ([6]; pH 8.65, read-out: GLB mg/ml (glibenclamide in solution)): 0.799 mg/mL (≈ 1620 µM) | solubility ([6]; pH 8.73, read-out: GLB mg/ml (glibenclamide in solution)): 0.087 mg/mL (≈ 176 µM) | solubility ([6]; pH 9.13, read-out: GLB mg/ml (glibenclamide in solution)): 0.205 mg/mL (≈ 415 µM) | solubility ([6]; pH 9.57, read-out: GLB mg/ml (glibenclamide in solution)): 3.97 mg/mL (≈ 8030 µM) | solubility ([6]; pH 10.28, read-out: GLB mg/ml (glibenclamide in solution)): 4.87 mg/mL (≈ 9860 µM) | solubility ([6]; pH 11.19, read-out: GLB mg/ml (glibenclamide in solution)): 4.67 mg/mL (≈ 9460 µM) | solubility ([6]; pH 11.44, read-out: GLB mg/ml (glibenclamide in solution)): 4.84 mg/mL (≈ 9800 µM) | solubility ([6]; pH 12.27, read-out: GLB mg/ml (glibenclamide in solution)): 2.51 mg/mL (≈ 5090 µM) | solubility [7]: 0.5 mg/mL (≈ 1010 µM)
